Entries after “also recorded” stand apart in the source; their conditions may differ.
Experiments:
[1] = test system: asexual blood stages of P. falciparum; assay: Life cycle stage specific action by microscopy of Giemsa-stained thin smears; format: cell-based, Plasmodium falciparum; settings: 10 μM, 24 h, listed as (±)-moxiquindole
Protocol: The life cycle stage specific action of (±)-moxiquindole was determined by treatment of parasites at different time points followed by microscopic analysis of Giemsa-stained thin blood smears. Stage proportions were calculated for each asexual parasite stage in the drug treated wells relative to the same stage in the negative control wells.
The inhibitory effects of active compounds or reference drugs on parasite development and schizont rupture were determined by quantitative light microscopy as previously described (Lee et al., 2015). Briefly, synchronized cultures (1.5% hematocrit and 3% parasitemia) at different time-points (early rings, mid trophozoites and schizonts) were treated with either test compound or controls at 10 μM final concentration for 24 h under regular culture conditions. Following treatment, Giemsa-stained thin smears were prepared and parasites were counted in 1,000 erythrocytes per treatment. Stage proportions in test wells relative to solvent control wells were calculated and used to assess the in vitro effects of each compound on trophozoites and schizont development as well as merozoite egress and invasion.

[2] = test system: vacuolar lipid dynamics in P. falciparum; assay: Effect on vacuolar lipid dynamics (Oil Red O staining); format: cell-based, Plasmodium falciparum; settings: trophozoite stage parasites, 24 h
Protocol: Because cellular vacuolation may result from perturbation of intracellular lipid content, we investigated the effect of (±)-moxiquindole on vacuolar lipid dynamics using fluorescent Oil red O as lipid stain.
The effect of the compounds on intracellular lipid dynamics was assessed by measurement of intracellular lipid content using Oil Red O. Briefly, early rings or late trophozoite stage parasites (30 hpi) were treated with the compounds or controls for 24 h under regular culture conditions. Following treatment, inhibitors were removed by centrifugation at 2500 rpm for 5 min and pellets were washed in equal volumes of 1×PBS. The parasites were fixed with 4% paraformaldehyde for 30 min at room temperature and pelleted at 2500. Three volumes of Oil Red O (ORO) stock solution (5 mg/mL in 100% isopropanol) were diluted in two volumes of distilled water and filtered prior to use. About 100 μL of the ORO were added to parasite pellets in the tube and incubated for 30 minutes. Parasites were pelleted and washed twice in distilled water. Thereafter, parasites were deposited on pre-cleaned coverslips and air dried. Dried coverslips were mounted in DAPI antifade reagent onto cleaned slides, air dried and viewed under a 100× oil immersion lens and images acquired using a Leica DM1000 fluorescence microscope suite (LAS version 4.5).

COc1cc2c(cc1OC)C1(NCC2)C(=O)Nc2ccc(Cl)cc21 (stereo not drawn) [Compound 8b]
stage specific action on asexual blood stages (ring, trophozoite, schizont) ([1]; treated at early ring, mid-trophozoite or mid-schizont): multi-stage active; also recorded: exhibits inhibitory activities against ring-to-trophozoite development, trophozoite-to-schizont development and schizont rupture
vacuolation in treated parasites ([1]; Giemsa-stained thin smears): abnormal vacuolation; also recorded: induced vacuolation in parasites
neutral lipid bodies / vacuolar lipid uptake (Oil red O) [2]: devoid of neutral lipid bodies

— patent US20230132973A1, “DIHYDRO-SPIRO[INDOLINE-3:1'-iSOQUINOLIN]-2-ONES AS ANTIMALARIAL AGENTS” (The University of Buea, priority 2020, published 2023)
